In the NIST ThermoML archive (doi:10.1016/j.fluid.2015.07.030):

Assay: refractive index (other wavelength) (dimensionless); xn = mol fraction of the nth substance listed
Conditions: 95.99 kPa, Liquid, Standard Abbe refractometry

OCCOCCOCCO [triethylene glycol] + O
refractive index
Conditions | Wavelength=404.7 nm | Wavelength=435.8 nm | Wavelength=486.1 nm | Wavelength=546.1 nm | Wavelength=587.6 nm | Wavelength=589.3 nm | Wavelength=632.8 nm | Wavelength=644 nm | Wavelength=706.5 nm
303.15 K, x2 = 0 | – | – | – | – | – | 1.45267 | 1.4511 | 1.45075 | 1.44903
303.15 K, x2 = 0.1056 | – | – | – | – | – | 1.45131 | 1.44977 | 1.44941 | 1.44768
303.15 K, x2 = 0.2069 | – | – | – | – | – | 1.44969 | 1.44815 | 1.4478 | 1.44609
303.15 K, x2 = 0.3104 | – | – | – | – | – | 1.44605 | 1.44452 | 1.44417 | 1.44246
303.15 K, x2 = 0.4844 | – | – | – | – | – | 1.44261 | 1.44109 | 1.44075 | 1.43906
303.15 K, x2 = 0.5016 | – | – | – | – | – | 1.44163 | 1.44012 | 1.43978 | 1.4381
303.15 K, x2 = 0.5952 | – | – | – | – | – | 1.43507 | 1.43356 | 1.43321 | 1.43153
303.15 K, x2 = 0.6016 | – | – | – | – | – | 1.43519 | 1.43369 | 1.43334 | 1.43165
303.15 K, x2 = 0.6788 | – | – | – | – | – | 1.42871 | 1.42724 | 1.42689 | 1.4252
303.15 K, x2 = 0.7835 | – | – | – | – | – | 1.41945 | 1.41799 | 1.41765 | 1.41598
303.15 K, x2 = 0.8184 | – | – | – | – | – | 1.41428 | 1.41284 | 1.41249 | 1.41081
303.15 K, x2 = 0.8473 | – | – | – | – | 1.40803 | 1.40797 | 1.40655 | 1.4062 | 1.40454
303.15 K, x2 = 0.8719 | – | – | – | – | 1.40124 | 1.40118 | 1.39977 | 1.39943 | 1.39777
303.15 K, x2 = 0.8926 | – | – | – | – | 1.39369 | 1.39363 | 1.39224 | 1.39191 | 1.39029
303.15 K, x2 = 0.9106 | – | – | – | – | 1.38817 | 1.38811 | 1.38673 | 1.38639 | 1.38476
303.15 K, x2 = 0.9254 | – | – | – | – | 1.37798 | 1.37792 | 1.37655 | 1.37622 | 1.37461
303.15 K, x2 = 0.9303 | – | – | – | – | 1.37934 | 1.37928 | 1.37792 | 1.37759 | 1.37597
303.15 K, x2 = 0.9391 | – | – | – | – | 1.37533 | 1.37531 | 1.37393 | 1.37361 | 1.37201
303.15 K, x2 = 0.951 | – | – | – | – | 1.36879 | 1.36873 | 1.36739 | 1.36708 | 1.36548
303.15 K, x2 = 0.9599 | – | – | – | – | 1.36294 | 1.36288 | 1.36155 | 1.36123 | 1.35966
303.15 K, x2 = 0.9708 | – | – | – | – | 1.35503 | 1.35497 | 1.35367 | 1.35335 | 1.35178
303.15 K, x2 = 0.979 | – | – | – | – | 1.35005 | 1.34999 | 1.34869 | 1.34838 | 1.34683
303.15 K, x2 = 0.9867 | – | – | – | – | 1.34407 | 1.34402 | 1.34275 | 1.34244 | 1.34092
303.15 K, x2 = 0.9936 | – | – | – | – | 1.33792 | 1.33786 | 1.3366 | 1.3363 | 1.33481
308.15 K, x2 = 0 | 1.46397 | 1.46043 | 1.45629 | 1.45285 | 1.45106 | 1.45099 | 1.44945 | – | –
308.15 K, x2 = 0.1056 | 1.46262 | 1.4591 | 1.45496 | 1.45153 | 1.44974 | 1.44967 | 1.44814 | – | –
308.15 K, x2 = 0.2069 | 1.46101 | 1.4575 | 1.45334 | 1.44996 | 1.44816 | 1.44809 | 1.44655 | – | –
308.15 K, x2 = 0.3104 | 1.45847 | 1.45498 | 1.45085 | 1.44745 | 1.44566 | 1.44561 | 1.44407 | – | –
308.15 K, x2 = 0.4844 | 1.45365 | 1.45024 | 1.44616 | 1.44282 | 1.44105 | 1.44098 | 1.43947 | – | –
308.15 K, x2 = 0.5016 | 1.45268 | 1.44927 | 1.4452 | 1.44188 | 1.44011 | 1.44065 | 1.43853 | – | –
308.15 K, x2 = 0.5952 | 1.44587 | 1.44251 | 1.43858 | 1.43529 | 1.43357 | 1.4335 | 1.43202 | – | –
308.15 K, x2 = 0.6016 | 1.44608 | 1.44288 | 1.43766 | 1.43458 | 1.43283 | 1.43274 | 1.43225 | – | –
308.15 K, x2 = 0.6788 | 1.43943 | 1.43608 | 1.43224 | 1.42901 | 1.42731 | 1.42725 | 1.42577 | – | –
308.15 K, x2 = 0.7835 | 1.43059 | 1.42735 | 1.42362 | 1.42052 | 1.41887 | 1.4188 | 1.41735 | – | –
308.15 K, x2 = 0.8184 | 1.4247 | 1.42147 | 1.41778 | 1.41468 | 1.41303 | 1.41297 | 1.41153 | – | –
308.15 K, x2 = 0.8473 | 1.41822 | 1.41506 | 1.41139 | 1.40833 | 1.40675 | 1.40666 | 1.40524 | – | –
308.15 K, x2 = 0.8719 | 1.41127 | 1.40816 | 1.40459 | 1.40157 | 1.39999 | 1.39993 | 1.39853 | – | –
308.15 K, x2 = 0.8926 | 1.40352 | 1.40046 | 1.39696 | 1.39401 | 1.39245 | 1.39239 | 1.39102 | – | –
308.15 K, x2 = 0.9106 | 1.39814 | 1.3951 | 1.39162 | 1.38868 | 1.38711 | 1.38705 | 1.38567 | – | –
308.15 K, x2 = 0.9254 | 1.38807 | 1.38515 | 1.38181 | 1.37898 | 1.37744 | 1.37739 | 1.37602 | – | –
308.15 K, x2 = 0.9303 | 1.38901 | 1.38605 | 1.38268 | 1.37985 | 1.37833 | 1.37828 | 1.37692 | – | –
308.15 K, x2 = 0.9391 | 1.38539 | 1.38243 | 1.37908 | 1.37624 | 1.37471 | 1.37465 | – | – | –
308.15 K, x2 = 0.951 | 1.37872 | 1.37585 | 1.37256 | 1.36977 | 1.36826 | 1.36821 | – | – | –
308.15 K, x2 = 0.9599 | 1.37231 | 1.3695 | 1.36628 | 1.36351 | 1.36202 | 1.36197 | – | – | –
308.15 K, x2 = 0.9708 | 1.36448 | 1.36175 | 1.35858 | 1.35587 | 1.35442 | 1.35436 | – | – | –
308.15 K, x2 = 0.979 | 1.35959 | 1.3569 | 1.35382 | 1.35111 | 1.34968 | 1.34963 | – | – | –
308.15 K, x2 = 0.9867 | 1.35319 | 1.35054 | 1.34746 | 1.34481 | 1.34338 | 1.34332 | – | – | –
308.15 K, x2 = 0.9936 | 1.34702 | 1.34444 | 1.34138 | 1.33876 | 1.33735 | 1.3373 | – | – | –
